This experiment concerns Vincristine-induced pain model. Kind of experiment: Antiallodynic activity on vincristine-induced pain model (von Frey). Format: in vivo, Sprague-Dawley rats. The conditions noted are these: ip, rat, intraperitoneal, 0.5 h. On the procedure: Male, Sprague-Dawley rats (300-320 g, Nara Bio, Korea) were habituated for 1 week before surgery and allowed free access to food and water throughout the experimentation. Room temperature and humidity were maintained at 24±2° C. and 50±10%, respectively.
Vincristine was established by the procedure of Natsuko et al. (2001) with minor modifications. Vincristine was intravenously infused continuously for 14 clays using a mini-osmotic pump as follows. Vincristine sulfate solution (Hospira, Australia) was diluted with 0.9% saline to 30 ug/kg, final close. The pumps (Alzet Model 2002, USA) were filled with the vincristine solution and primed by incubation at 37° C. for 4 h before the infusion. […]
Tactile sensitivity (Mechanical allodynia) was evaluated using von Frey monofilaments before and after treatment, and animals were used withdrawal threshold value was less than 4 g. […] The tactile sensitivity for ipsilateral hind paw was measured using the up-and-down method (Dixon, 1980) with seven von Frey monofilaments (0.4, 1, 2, 4, 6, 8, and 15 g) to 3 trials. […] The 50% paw withdrawal threshold for each paw was calculated using the following formula: [Xth] log=[vFr] log+ky where [vFr] is the force of the last von Frey used, k=0.2249 which is the average interval (in log units) between the von Frey monofilaments, and y is a value that depends upon the pattern of withdrawal responses (Dixon, 1980). […]

`CC1(C)O[C@@H](COS(N)(=O)=O)[C@H](c2ccccc2Cl)O1` [Example 2, ((4S,5S)-5-(2-chlorophenyl)-2,2-dimethyl-1,3-dioxolan-4-yl)methyl sulfamate] displayed an ED50 of 1 mg/kg.
